According to PMC10489748, “The Anti-Breast Cancer Stem Cell Potency of Copper(I)-Non-Steroidal Anti-Inflammatory Drug Complexes” (Molecules, 2023):
Like-named read-outs stand apart in the source and are kept apart here.

How the values were obtained:
HMLER-shEcad cells [1] = details: 72 h incubation, cited from earlier work
[2] = system: HMLER-shEcad mammospheres; parameters: method as in PMID 26806362, PMID 31588328, PMID 28932846, PMID 31209956; details: 120 h incubation, ref [14],[37],[39],[40], read-out: Mammosphere IC50; cited from earlier work
HMLER cells [3] = details: 72 h incubation, cited from earlier work
HMLER-shEcad cells [4] = experiment: MTT cytotoxicity assay, breast CSCs; type: cell-based, human; details: 72 h incubation
Experimental: (§1) Exponentially growing cells were seeded at a density of approximately 5 × 10^3 cells per well in 96-well flat-bottomed microplates, and allowed to attach for 24 h prior to the addition of compounds. […] Stock solutions of the compounds were prepared as 10 mM DMSO solutions, and diluted using cell media. […] After 72 h, 20 μL of MTT (4 mg mL^−1 in PBS) was added to each well, and the plates were incubated for an additional 4 h at 37 °C. The media/MTT mixture was eliminated, and DMSO (100 μL per well) was added to dissolve the formazan precipitates. […] Absorbance values were normalised to (DMSO-containing) control wells, and plotted as concentration of compound versus % cell viability. IC50 values were interpolated from the resulting dose-dependent curves.

BEAS-2B cells = experiment: MTT cytotoxicity assay, non-cancerous bronchial epithelium cells; type: cell-based; details: 72 h incubation
Experimental: Exponentially growing cells were seeded at a density of approximately 5 × 10^3 cells per well in 96-well flat-bottomed microplates, and allowed to attach for 24 h prior to the addition of compounds. Various concentrations of the test compounds (0.19–100 μM) were added, and the plates were incubated for 72 h at 37 °C (total volume 200 μL). Stock solutions of the compounds were prepared as 10 mM DMSO solutions, and diluted using cell media. The final concentration of DMSO in each well was ≤1 %. After 72 h, 20 μL of MTT (4 mg mL^−1 in PBS) was added to each well, and the plates were incubated for an additional 4 h at 37 °C. The media/MTT mixture was eliminated, and DMSO (100 μL per well) was added to dissolve the formazan precipitates. The optical density was measured at 550 nm, using a 96-well multiscanner autoreader. Absorbance values were normalised to (DMSO-containing) control wells, and plotted as concentration of compound versus % cell viability. IC50 values were interpolated from the resulting dose-dependent curves.

HMLER cells [5] = experiment: MTT cytotoxicity assay, bulk breast cancer cells; type: cell-based, human; details: 72 h incubation
Experimental: as §1

[6] = system: HMLER-shEcad mammospheres; experiment: Mammosphere viability assay (TOX8); type: cell-based, human; details: TOX8, 120 h incubation
Experimental: HMLER-shEcad cells (5 × 10^3) were plated in ultralow-attachment 96-well plates (Corning) and incubated in MEGM supplemented with B27 (Invitrogen), 20 ng mL^−1 EGF, and 4 μg mL^−1 heparin (Sigma), for 5 days. Studies were also conducted in the presence of 1–3, cisplatin and salinomycin (0–133 µM). Mammospheres treated with 1–3, cisplatin, and salinomycin (0.5 µM, 5 days) were counted and imaged, using an inverted microscope. The viability of the mammospheres was determined via the addition of a resazurin-based reagent, TOX8 (Sigma). After incubation for 16 h, the fluorescence of the solutions was read at 590 nm (λex = 560 nm). Viable mammospheres reduce the amount of the oxidised TOX8 form (blue) and, concurrently, increase the amount of the fluorescent TOX8 intermediate (red), indicating the degree of mammosphere cytotoxicity caused by the test compound. Fluorescence values were normalised to DMSO-containing controls, and plotted as concentration of test compound versus % mammospheres viability. IC50 values were interpolated from the resulting dose-dependent curves. The reported IC50 values are the average of two independent experiments, each consisting of two replicates per concentration level (n = 4).

HMLER-shEcad cells [7] = experiment: Intracellular ROS assay (DCFH-DA); type: cell-based, human; details: 2 × IC50 value
Experimental: HMLER-shEcad cells (5 × 10^3) were seeded in each well of a 96-well plate. […] The intracellular ROS level was determined via measurement of the fluorescence of the solutions in each well at 529 nm (λex = 504 nm).

[8] = Water–octanol partition coefficient (LogP), shake-flask method and ICP-MS; type: physicochemical; details: water/1-octanol, room temperature, 24 h
Experimental: The 1-octanol used in this experiment was pre-saturated with water. […] The tube was shaken at room temperature for 24 h. The two phases were separated via centrifugation, and the copper content in the water phase was determined via ICP-MS.

[9] = ref [1,2] of the SI (Eskandari et al. 2016; Eskandari, Suntharalingam 2019)

N.N.[Cl][Pt][Cl] [cisplatin]
IC50 (HMLER-shEcad cells [1]; ref [14],[37],[39],[40]): 5.65 ± 0.3 µM
IC50 [2]: 13.5 ± 2.34 µM
IC50 (HMLER cells [3]; ref [14],[37],[39],[40]): 2.57 ± 0.02 µM

O=C([O-])Cc1ccccc1Nc1c(Cl)cccc1Cl.[Cu+].c1ccc(P(c2ccccc2)c2ccccc2)cc1.c1ccc(P(c2ccccc2)c2ccccc2)cc1 [compound 1, [Cu^I(diclofenac)(PPh3)2]]
IC50 (HMLER-shEcad cells [4]): 4.61 ± 0.18 µM
IC50 (BEAS-2B cells): 4.32 ± 0.13 µM
IC50 (HMLER cells [5]): 2.42 ± 0.1 µM
IC50 [6]: 18.2 ± 2.02 µM
Increase in ROS levels compared to untreated control cells (HMLER-shEcad cells [7]; 1 h exposure): 76%
Change of intracellular ROS status (HMLER-shEcad cells [7]; exposure beyond 1 h (3–24 h)): did not markedly alter

COc1ccc2cc(C(C)C(=O)[O-])ccc2c1.[Cu+].c1ccc(P(c2ccccc2)c2ccccc2)cc1.c1ccc(P(c2ccccc2)c2ccccc2)cc1 [compound 2, [Cu^I(naproxen)(PPh3)2]]
IC50 (HMLER-shEcad cells [4]): 4.46 ± 0.08 µM
IC50 (BEAS-2B cells): 4.11 ± 0.001 µM
IC50 (HMLER cells [5]): 2.36 ± 0.03 µM
IC50 [6]: 11.8 ± 0.7 µM
Increase in ROS levels (HMLER-shEcad cells [7]; 16 h exposure): 41%
Increase in ROS levels (HMLER-shEcad cells [7]; 24 h exposure): 32%

O=C([O-])c1ccccc1O.[Cu+].c1ccc(P(c2ccccc2)c2ccccc2)cc1.c1ccc(P(c2ccccc2)c2ccccc2)cc1 [compound 3, [Cu^I(salicylate)(PPh3)2]]
IC50 (HMLER-shEcad cells [4]): 4.55 ± 0.001 µM
LogP [8]: 0.82 ± 0.002
IC50 (BEAS-2B cells): 3.53 ± 0.21 µM
IC50 (HMLER cells [5]): 2.13 ± 0.002 µM
IC50 [6]: 13.6 ± 0.74 µM
Increase in ROS levels (HMLER-shEcad cells [7]; 16 h exposure): 191%
Increase in ROS levels (HMLER-shEcad cells [7]; 24 h exposure): 75%

O=C(O)Cc1ccccc1Nc1c(Cl)cccc1Cl [diclofenac]
IC50 (HMLER-shEcad cells [1]; [9]): 54.74 ± 0.23 µM
IC50 (HMLER cells [3]; [9]): 69.5 ± 8.7 µM

COc1ccc2cc([C@H](C)C(=O)O)ccc2c1 [naproxen]
IC50 (HMLER-shEcad cells [1]; [9]): > 100 µM
IC50 (HMLER cells [3]; [9]): > 100 µM

CC[C@@H](C(=O)[C@@H](C)[C@@H](O)[C@H](C)[C@@H]1O[C@@H]([C@@H](CC)C(=O)O)CC[C@@H]1C)[C@H]1O[C@]2(C=C[C@@H](O)[C@]3(CC[C@@](C)([C@H]4CC[C@](O)(CC)[C@H](C)O4)O3)O2)[C@H](C)C[C@@H]1C [salinomycin]
IC50 (HMLER-shEcad cells [1]; ref [14],[37],[39],[40]): 4.23 ± 0.35 µM
IC50 [2]: 18.5 ± 1.5 µM
IC50 (HMLER cells [3]; ref [14],[37],[39],[40]): 11.4 ± 0.42 µM
